Measured values published in patent US8426447B2, “Spiro-tricyclic ring compounds as beta-secretase modulators and methods of use” (Amgen Inc., priority 2008, dated 2013).
One block for each compound: values may come before it.

How the values were obtained:
[1] = biological target: T1, BACE1 (Homo sapiens, UniProt P56817); assay: In Vitro Enzymatic BACE FRET (Fluorescence Resonance Energy Transfer) Assay; type: biochemical
Summary of the method: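 Acetate buffer at pH 4.2 with 10% DMSO and 100 uM genapol hosts the enzymatic reaction, initiated by 50 nM FRET substrate and allowed to proceed one hour. Tris quench to neutral pH precedes the fluorescence measurement.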

[2] = biological target: T1, BACE1; assay: In Vitro BACE Cell-based Assay (HEK cell assay): Aβ40 in conditioned medium of cells stably expressing Amyloid Precursor Protein, sandwich ELISA
Description: In Vitro BACE Cell-based Assay
The cell-based assay measures inhibition or reduction of Aβ40 in conditioned medium of test compound treated cells expressing amyloid precursor protein.
Cells stably expressing Amyloid Precursor Protein (APP) were plated at a density of 40K cells/well in 96 well plates (Costar). The cells were cultivated for 24 hours at 37° C. and 5% CO2 in DMEM supplemented with 10% FBS. The test compounds were then added to cells in 10-point dose response concentrations with the starting concentration being either 100 μM or 10 μM. The compounds were diluted from stock solutions in DMSO and the final DMSO concentration of the test compounds on cells was 0.1%. After 24 h of incubation with the test compounds the supernatant conditioned media was collected and the Aβ 40 levels were determined using a sandwich ELISA. The IC50 of the compound was calculated from the percent of control or percent inhibition of Aβ 40 as a function of the concentration of the test compound.
The sandwich ELISA to detect Aβ 40 was performed in 96 well microtiter plates, which were pre-treated with goat anti-rabbit IgG (Pierce). The capture and detecting antibody pair that were used to detect Aβ 40 from cell supernatants were affinity purified pAb40 (Biosource) and biotinylated 6E10 (Signet Labs Inc.), respectively. The optimal concentration for the pAb40 antibody was 3 μg/ml in Superblock/TBS (Pierce) that was supplemented with 0.05% Tween 20 (Sigma).
Cellular supernatants were incubated with the capture antibody for 3 h at 4° C., followed by 3 wash steps in TBS-tween (0.05%). The detecting antibody incubation was for 2 h at 4° C., again followed by the wash steps as described previously. The final readout of the ELISA is Time-Resolved Fluorescence (counts per minute) using Delfia reagents Streptavidin-Europium and Enhancement solutions (Perkin Elmer) and the Victor 2 multilabel counter (Perkin Elmer).

[3] = Table IV, class symbols, read-out: BACE1 FRET assay
[4] = Table IV, class symbols, read-out: HEK cell assay
[5] = in vitro BACE FRET enzyme assay, IC50 class symbols, read-out: BACE1 FRET assay
[6] = HEK cell-based assay, Aβ40 in conditioned medium, IC50 class symbols, read-out: HEK cell assay
[7] = HEK cells, read-out: HEK cell assay
[8] = Table III, IC50's in uM ranges, read-out: BACE1 FRET assay
[9] = Table III, IC50's in uM ranges, read-out: HEK cell assay

T1 sequence (P56817 46-501, species assumed): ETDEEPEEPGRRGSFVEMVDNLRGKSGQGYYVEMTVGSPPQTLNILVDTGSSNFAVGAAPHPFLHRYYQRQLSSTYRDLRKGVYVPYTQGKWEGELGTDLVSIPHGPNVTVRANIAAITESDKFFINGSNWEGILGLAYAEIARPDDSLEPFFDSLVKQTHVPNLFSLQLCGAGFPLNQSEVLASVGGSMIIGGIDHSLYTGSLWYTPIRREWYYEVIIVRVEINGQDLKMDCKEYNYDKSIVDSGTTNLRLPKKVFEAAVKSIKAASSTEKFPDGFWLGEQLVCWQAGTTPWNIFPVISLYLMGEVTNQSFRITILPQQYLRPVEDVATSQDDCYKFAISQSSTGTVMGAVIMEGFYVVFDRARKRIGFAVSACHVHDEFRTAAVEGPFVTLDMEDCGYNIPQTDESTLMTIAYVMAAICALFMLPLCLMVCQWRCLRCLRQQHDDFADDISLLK

IC50 [1, 3]: > 5 µM | IC50 [2, 4]: > 5 µM
Compound: NC1=N[C@]2(CO1)c1cc(Br)ccc1Oc1c(F)cccc12 [compound 559]

IC50 [1, 8]: < 0.1 µM | IC50 [2, 9]: < 0.1 µM
Compound: CC(C)(C)COc1ccc2c(c1)[C@@]1(COC(N)=N1)c1cc(-c3ncccn3)ccc1O2 [compound 186]

IC50 [1, 3]: < 0.1 µM | IC50 [2, 4]: 0.1 to 1 µM
Compound: NC1=N[C@]2(CO1)c1cc(-c3ccc(O)cc3)ccc1Oc1ccc(-c3cncnc3)cc12 [compound 890]

IC50 ([1]; read-out: BACE1 FRET assay): > 5 µM | IC50 ([2]; read-out: HEK cell assay): > 5 µM
Compound: N#Cc1ccccc1Oc1ccc2c(c1)[C@]1(COC(N)=N1)c1cc(Br)ccc1O2 [compound 997]

IC50 ([1]; read-out: BACE1 FRET assay): 1 to 5 µM | IC50 ([2]; read-out: HEK cell assay): 1 to 5 µM
Compound: NC1=N[C@@]2(CO1)c1cc(-c3cccnc3)ccc1Oc1ccc(Cl)nc12 [compound 988]

IC50 [1, 8]: < 0.1 µM | IC50 [2, 9]: < 0.1 µM
Compound: CC(C)(O)C#Cc1ccc2c(c1)[C@@]1(COC(N)=N1)c1cc(-c3cccnc3)ccc1O2 [151b]

IC50 ([1]; read-out: BACE1 FRET assay): < 0.1 µM | IC50 ([2]; read-out: HEK cell assay): < 0.1 µM
Compound: COC(C)(C)CCc1ccc2c(c1)[C@]1(COC(N)=N1)c1cc(-c3cccnc3)ccc1O2 [compound 1001]

IC50 [1, 8]: < 0.1 µM | IC50 [2, 9]: 0.1 to 1 µM
Compound: CC(C)(C)CCc1ccc2c(c1)[C@]1(COC(N)=N1)c1cc(-c3ccc(F)nc3)ccc1O2 [153b]

IC50 [1, 3]: < 0.1 µM | IC50 [2, 4]: 1 to 5 µM
Compound: CC(C)(C)COc1ccc2c(c1)[C@]1(COC(N)=N1)c1cc(-c3cccs3)ccc1O2 [compound 834]

IC50 ([1]; read-out: BACE1 FRET assay): < 0.1 µM | IC50 ([2]; read-out: HEK cell assay): 0.1 to 1 µM
Compound: CC(C)(C)COc1ccc2c(c1)[C@]1(COC(N)=N1)c1cc(-c3cccnc3)ncc1O2 [compound 750]

IC50 ([1]; Table 1, read-out: BACE1 FRET assay): 1 to 5 µM | IC50 ([2]; Table 1, Aβ40, 24 h incubation, read-out: HEK cell assay): > 5 µM
Compound: COc1ccc2c(c1)C1(COC(N)=N1)c1cc(-c3cccc(C)c3)ccc1O2 (stereo not shown) [Example 20, 2′-methoxy-7′-(3-methylphenyl)spiro[1,3-oxazole-4,9′-xanthen]-2-amine]

The next lines start with the compound.

Compound: CC(C)(C)COc1ccc2c(n1)[C@@]1(COC(N)=N1)c1cc(Br)ccc1O2 [compound 734]
IC50 ([1]; read-out: BACE1 FRET assay): > 5 µM | IC50 ([2]; read-out: HEK cell assay): > 5 µM

Compound: NC1=N[C@@]2(CO1)c1cc(-c3cccnc3F)ccc1Oc1cnc(C3=CCOCC3)cc12 [Example 294, (S)-3-(3,6-dihydro-2H-pyran-4-yl)-7-(2-fluoropyridin-3-yl)-5′H-spiro[chromeno[2,3-c]pyridine-5,4′-oxazol]-2′-amine]
IC50 ([1]; BACE1 FRET assay, Table IV, class symbols): < 0.1 µM | IC50 ([2]; HEK cell assay, Table IV, class symbols): < 0.1 µM

Compound: CC(C)C[C@H]1CN(c2ccc3c(c2)[C@]2(COC(N)=N2)c2cc(-c4cccnc4)ccc2O3)CCO1 [compound 359]
IC50 [1, 5]: 0.1 to 1 µM | IC50 [2, 6]: 0.1 to 1 µM

Compound: NC1=N[C@@]2(CO1)c1cc(-c3cncnc3)ccc1Oc1ccc(N3CCOC4(CCCC4)C3)cc12 [compound 462]
IC50 ([1]; read-out: BACE1 FRET assay): < 0.1 µM | IC50 [2, 7]: 0.1 to 1 µM

Compound: NC1=N[C@@]2(CO1)c1cc(-c3cccnc3)ccc1Oc1cnc(N3CCC(=O)CC3)cc12 [compound 442]
IC50 ([1]; read-out: BACE1 FRET assay): < 0.1 µM | IC50 [2, 7]: < 0.1 µM

Compound: CN(C)c1ncc(-c2ccc3c(c2)[C@@]2(COC(N)=N2)c2cc(OCC(C)(C)C)ccc2O3)cn1 [compound 838]
IC50 [1, 3]: > 5 µM | IC50 [2, 4]: > 5 µM

Compound: Cc1ccc(-n2ccc3c(c2=O)[C@@]2(COC(N)=N2)c2cc(-c4cccnc4)ccc2O3)cc1 [compound 503]
IC50 ([1]; read-out: BACE1 FRET assay): > 5 µM | IC50 [2, 7]: 1 to 5 µM

Compound: COC(C)(C)C#Cc1ccc2c(c1)[C@@]1(COC(N)=N1)c1cc(C#CC(C)(C)OC)cnc1O2 [compound 934]
IC50 ([1]; read-out: BACE1 FRET assay): < 0.1 µM | IC50 ([2]; read-out: HEK cell assay): < 0.1 µM

Compound: CC(C)(C)/C=C/c1cnc2c(c1)[C@]1(COC(N)=N1)c1cc(-c3cncnc3)ccc1O2 [compound 379]
IC50 [1, 5]: < 0.1 µM | IC50 [2, 6]: < 0.1 µM

Compound: NC1=N[C@@]2(CO1)c1cc(-c3cc(C4=CCOCC4)ccc3F)ccc1Oc1cnc(C3=CCOCC3)cc12 [compound 423]
IC50 ([1]; read-out: BACE1 FRET assay): < 0.1 µM | IC50 [2, 7]: 0.1 to 1 µM

Compound: CC1(C)CN(c2cnc3c(c2)[C@]2(COC(N)=N2)c2cc(-c4cc(F)ccc4F)ccc2O3)CCO1 [compound 468]
IC50 ([1]; read-out: BACE1 FRET assay): < 0.1 µM | IC50 [2, 7]: < 0.1 µM

Compound: CC(C)(C)COc1ccc2c(c1)[C@]1(COC(N)=N1)c1cc(C3CCCC3)ccc1O2 [compound 701]
IC50 ([1]; read-out: BACE1 FRET assay): < 0.1 µM | IC50 ([2]; read-out: HEK cell assay): 1 to 5 µM
